Measured values reported in patent publication US20050267085A1, “Combined therapy for the treatment of Parkinson's disease” (UNIVERSITE LAVAL, priority 2004, published 2005).

Experiments:
[1] = tested on: hemiparkinsonian MPTP-monkeys; assay: Ipsilateral and contralateral circling behavior in hemiparkinsonian MPTP-monkeys; assay type: in vivo, macaca fasicularis
Procedure: (§1) Six hemiparkinsonian ovariectomized female macaca fasicularis monkeys weighing 2.8-6.5 kg were used in this experiment. During induction of the parkinsonian syndrome, they received 1-methyl-4-phenyl-1,2,3,6-tetrahydropyridine (MPTP, 3 mg) via an Alzet pump during a period of 1-2 weeks according to the monkey. The procedure consisted of putting the pump in the left substantia nigra and the MPTP infused lesioned the dopaminergic cells. The animals were used at least 5 months after the induction of their hemiparkinsonian state at which time they had stabilized. For a further experimentation, 6 bilaterally-lesioned parkinsonian macaca fasicularis monkeys were used. The induction of the parkinsonian syndrome was performed according to the above-described methodology, except that the Alzet pump was installed so as to lesion dopaminergic cells of the substantia nigra in both brain hemispheres.
(§2) To determine the effect of levodopa, DHEA or combination thereof on parkinsonian monkeys, ipsilateral and contralateral circling was monitored in hemiparkinsonian monkeys while Parkinsonian score was determined in bilaterally-lesion parkinsonian monkeys. Hemiparkinsonian monkeys turn towards the ipsilateral side of the lesion (to the left) under basal conditions and upon dopaminergic stimulation this circling changes for the contralateral side (to the right). Parkinsonian score was determined in bilaterally-lesion parkinsonian monkeys according to the method known in the art. All received the same treatments and were their own controls. Monkeys were first treated with levodopa for priming until a stable antiparkinsonian behavior was observed. During the investigation of DHEA administered alone, priming of the monkeys was continued with administration of levodopa/benserazide (50/12.5 mg) given twice weekly. DHEA treatments were started on the third day after the last levodopa dose.
(§3) DHEA was administered at different doses (1, 5, and 15 mg/kg) by nasogastric gavage (n.g.) alone and in combination (DHEA: 1, 5, 10 and 15 mg/kg n.g.) with a s.c. T.L-Dopa. Threshold doses of levodopa, that is the minimal dose to obtain contralateral circling were sought for each of the MPTP-monkeys and varied from one monkey to another from 3 to 8 mg/kg (3, 4, 4.5, 5, 5, and 8 mg/kg). Higher doses of DHEA (25-100 mg/kg) alone or with T.L-Dopa were also tested in a similar paradigm.
Treatments were administered in the morning and each animal was recorded via a video camera system. Duration of locomotor activation lasted for 90 min for all hemiparkinsonian animals and treatments. […] Each treatment was repeated 2-3 times and averaged for each monkey.
Experimental data was compared using an ANOVA for repeated measures followed by post-hoc pair wise comparisons with Fisher's probability of least significant difference test (PLSD). A p<0.05 was required for the results to be considered statistically significant. Statistical comparison of square root transformation of the data was used to stabilize variance when required (D. C. Montgomery (1991) Third Edition, Design and analysis of experiments. ed. Whileys and Sons pp. 216).

[2] = tested on: bilaterally-lesioned parkinsonian MPTP-monkeys; assay: Parkinsonian score and duration of levodopa effect in bilaterally-lesioned parkinsonian MPTP-monkeys; assay type: in vivo, macaca fasicularis
Procedure: as §1, §2, §3
Experimental data was compared using an ANOVA for repeated measures followed by post-hoc pair wise comparisons with Fisher's probability of least significant difference test (PLSD). A p<0.05 was required for the results to be considered statistically significant. […]

[3] = DHEA 1 mg/kg n.g. added to threshold dose s.c. T.L-Dopa, compared to saline or T.L-Dopa alone
[4] = DHEA 5, 10 and 15 mg/kg n.g. combined with T.L-Dopa, compared to saline
[5] = threshold dose of levodopa alone

With `C[C@]12CC[C@H](O)CC1=CC[C@@H]1[C@@H]2CC[C@]2(C)C(=O)CC[C@@H]12` [DHEA, Dehydroepiandrosterone] the “contralateral circling (mean/30 min)” value [1, 3] was “significantly increased”, the “contralateral circling (mean/30 min)” value [1, 4] was “significantly increased” and the levodopa-induced locomotor activity ([1]; DHEA added to minimal threshold doses of levodopa) was “potentiates”. The “contralateral circling (mean/30 min)” value ([1]; DHEA alone 1-15 mg/kg n.g., compared to saline treatment) was “significantly and similarly increased”, the ipsilateral circling ([1]; DHEA alone or DHEA combined to T.L-Dopa, versus basal conditions or saline) was “decreased” and the “dose-response on circling behavior” value ([1]; DHEA alone or combined with levodopa) was “did not produce a significant dose-response”. For the same compound, the “Duration of the DHEA effect” value ([1]; DHEA alone, n.g.) was 90 min, the “effect on levodopa-induced change in ipsilateral, contralateral and ipsilateral-contralateral circling” value ([1]; optimal dose of DHEA for each monkey combined with threshold levodopa) was “significantly potentiated” and the Parkinsonian score [2, 3] was “decreased”. For the same compound, the “increase of duration of levodopa effect” value ([2]; DHEA 1 and 5 mg/kg with threshold dose of levodopa, versus levodopa alone) was “approximately 40%”, the Parkinsonian score [2, 4] was “reduced” and the Parkinsonian score ([2]; DHEA alone at different doses, n.g.) was “reduce”.
In the case of `N[C@@H](Cc1ccc(O)c(O)c1)C(=O)O` [Levodopa, L-3,4-dihydroxyphenylalanine], the contralateral circling [1, 5] is reported as “increased”, the ipsilateral circling [1, 5] is reported as “decreased” and the overall ipsilateral-contralateral circling [1, 5] is reported as “reducing”.
